According to ChEMBL document CHEMBL4706658, “Discovery and Biological Evaluation of N-Methyl-pyrrolo[2,3-b]pyridine-5-carboxamide Derivatives as JAK1-Selective Inhibitors” (J Med Chem, 2021):
Active and inactive are the calls of the source. The rule behind the calls is not given here.

Tests used:
[1] = biological target: T1, Tyrosine-protein kinase JAK1 (Homo sapiens, UniProt P23458)
Description: Inhibition of recombinant JAK1 (unknown origin) using GFP-STAT1 as substrate incubated for 1 hr followed by anti-pSTAT1 antibody addition and measured after 30 mins by Lanthascreen TR-FRET assay

[2] = biological target: T2, Non-receptor tyrosine-protein kinase TYK2 (Homo sapiens, UniProt P29597)
Description: Inhibition of recombinant TYK2 (unknown origin) using GFP-STAT1 as substrate incubated for 1 hr followed by anti-pSTAT1 antibody addition and measured after 30 mins by Lanthascreen TR-FRET assay

[3] = biological target: T3, Tyrosine-protein kinase JAK2 (Homo sapiens, UniProt O60674)
Description: Inhibition of recombinant JAK2 (unknown origin) using GFP-STAT1 as substrate incubated for 1 hr followed by anti-pSTAT1 antibody addition and measured after 30 mins by Lanthascreen TR-FRET assay

[4] = biological target: T1, Tyrosine-protein kinase JAK1; conditions: BaF3
Description: Inhibition of JAK1 (unknown origin) transfected in mouse BAF3 cells assessed as cell growth inhibition incubated for 72 hrs by CCK8 assay

[5] = biological target: T2, Non-receptor tyrosine-protein kinase TYK2; conditions: BaF3
Description: Inhibition of TYK2 (unknown origin) transfected in mouse BAF3 cells assessed as cell growth inhibition incubated for 72 hrs by CCK8 assay

[6] = biological target: T4, Tyrosine-protein kinase JAK3 (Homo sapiens) (UniProt P52333); conditions: BaF3
T4 sequence (whole entry): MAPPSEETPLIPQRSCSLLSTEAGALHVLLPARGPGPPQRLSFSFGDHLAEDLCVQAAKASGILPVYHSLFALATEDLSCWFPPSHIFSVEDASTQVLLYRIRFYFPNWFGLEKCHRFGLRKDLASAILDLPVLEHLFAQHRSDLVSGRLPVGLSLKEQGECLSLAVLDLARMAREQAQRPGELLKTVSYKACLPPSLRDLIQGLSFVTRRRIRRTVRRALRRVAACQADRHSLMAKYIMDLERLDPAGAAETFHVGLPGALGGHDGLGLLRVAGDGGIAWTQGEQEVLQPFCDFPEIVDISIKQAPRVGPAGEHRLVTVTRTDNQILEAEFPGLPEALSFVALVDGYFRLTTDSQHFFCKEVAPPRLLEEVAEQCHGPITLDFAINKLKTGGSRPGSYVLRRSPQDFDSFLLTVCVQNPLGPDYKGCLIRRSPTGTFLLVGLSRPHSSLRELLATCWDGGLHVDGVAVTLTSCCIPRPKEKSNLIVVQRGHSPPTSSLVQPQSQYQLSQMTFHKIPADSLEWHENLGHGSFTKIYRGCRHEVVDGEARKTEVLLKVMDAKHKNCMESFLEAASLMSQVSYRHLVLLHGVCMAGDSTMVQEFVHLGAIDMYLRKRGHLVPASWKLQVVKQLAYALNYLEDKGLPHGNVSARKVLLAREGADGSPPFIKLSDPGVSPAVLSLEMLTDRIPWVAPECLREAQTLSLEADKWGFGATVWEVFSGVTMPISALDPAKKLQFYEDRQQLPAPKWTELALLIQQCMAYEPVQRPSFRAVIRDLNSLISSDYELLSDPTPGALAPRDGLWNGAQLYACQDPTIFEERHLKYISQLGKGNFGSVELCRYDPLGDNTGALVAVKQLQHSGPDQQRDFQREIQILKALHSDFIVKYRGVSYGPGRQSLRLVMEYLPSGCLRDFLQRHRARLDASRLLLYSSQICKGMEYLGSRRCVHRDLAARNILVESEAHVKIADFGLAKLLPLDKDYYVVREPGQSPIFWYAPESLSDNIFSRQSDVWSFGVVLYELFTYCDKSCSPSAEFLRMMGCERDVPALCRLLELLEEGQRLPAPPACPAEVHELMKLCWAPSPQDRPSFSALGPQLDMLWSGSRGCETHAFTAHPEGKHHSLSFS
Description: Inhibition of JAK3 (unknown origin) transfected in mouse BAF3 cells assessed as cell growth inhibition incubated for 72 hrs by CCK8 assay

[7] = test system: LX2; conditions: Homo sapiens, dose 500.0 nM
[8] = test system: LX2; conditions: Homo sapiens, dose lower […], dose upper 500.0 nM
[9] = test system: LX2; conditions: Homo sapiens, dose 500.0 nM; remark: listed apart in the source
[10] = test system: LX2; conditions: Homo sapiens, dose 500.0 nM; remark: listed apart in the source
[11] = biological target: T3, Tyrosine-protein kinase JAK2; conditions: BaF3
Description: Inhibition of JAK2 (unknown origin) transfected in mouse BAF3 cells assessed as cell growth inhibition incubated for 72 hrs by CCK8 assay

[12] = cells; type: functional, LX2; conditions: Homo sapiens, LX-2, 72 h; time hrs <=72
[13] = in vitro; conditions: mouse, microsomes
Description: Metabolic stability in mouse liver microsomes assessed as parent compound remaining at 10 uM measured after 30 mins relative to control

[14] = in vitro; conditions: dog, MDCK
Description: Permeability of compound across apical to basolateral side in MDCK cells at 10 uM

[15] = biological target: T5, CYP1A2 (Homo sapiens, UniProt P05177); experiment: in vitro
T5 sequence (P05177 whole entry): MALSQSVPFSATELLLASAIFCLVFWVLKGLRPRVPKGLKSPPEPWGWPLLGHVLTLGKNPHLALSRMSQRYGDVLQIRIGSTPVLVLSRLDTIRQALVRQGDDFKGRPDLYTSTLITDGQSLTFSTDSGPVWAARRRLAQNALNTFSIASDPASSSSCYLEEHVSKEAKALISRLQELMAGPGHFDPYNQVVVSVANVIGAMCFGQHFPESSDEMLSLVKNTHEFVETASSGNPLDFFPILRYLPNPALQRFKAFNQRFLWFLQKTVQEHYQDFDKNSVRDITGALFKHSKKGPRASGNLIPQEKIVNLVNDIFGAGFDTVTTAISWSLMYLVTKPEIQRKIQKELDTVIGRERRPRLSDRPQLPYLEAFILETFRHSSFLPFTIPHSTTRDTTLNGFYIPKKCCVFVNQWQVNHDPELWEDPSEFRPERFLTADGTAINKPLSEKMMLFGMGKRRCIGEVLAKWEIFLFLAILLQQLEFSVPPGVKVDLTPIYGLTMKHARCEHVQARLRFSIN
Description: Inhibition of CYP1A2 (unknown origin) at 10 uM relative to control

[16] = biological target: Vascular endothelial growth factor receptor 1 (Homo sapiens, UniProt P17948)
[17] = in vitro; conditions: rat, plasma
Description: Stability in rat plasma assessed as compound remaining at 2 uM measured after 2 hrs relative to control

[18] = in vitro; conditions: human, lx2
[19] = in vitro; conditions: dog, MDCK; remark: listed apart in the source
Description: Permeability of compound across basolateral to apical side in MDCK cells at 10 uM

[20] = biological target: CYP2D6 (Homo sapiens, UniProt P10635); experiment: in vitro
Description: Inhibition of CYP2D6 (unknown origin) at 10 uM relative to control

[21] = biological target: CYP3A4 (Homo sapiens, UniProt P08684); experiment: in vitro
[22] = in vitro; conditions: human, plasma
Description: Stability in human plasma assessed as compound remaining at 2 uM measured after 2 hrs relative to control

[23] = biological target: CYP2C19 (Homo sapiens, UniProt P33261); experiment: in vitro
Description: Inhibition of CYP2C19 (unknown origin) at 10 uM relative to control

[24] = biological target: CYP2C9 (Homo sapiens, UniProt P11712); experiment: in vitro
Description: Inhibition of CYP2C9 (unknown origin) at 10 uM relative to control

[25] = in vitro; conditions: rat, microsomes
Description: Metabolic stability in rat liver microsomes assessed as parent compound remaining at 10 uM measured after 30 mins relative to control

[26] = in vitro; conditions: human, microsomes
Description: Metabolic stability in human liver microsomes assessed as parent compound remaining at 10 uM measured after 30 mins relative to control

T2 sequence (P29597 whole entry): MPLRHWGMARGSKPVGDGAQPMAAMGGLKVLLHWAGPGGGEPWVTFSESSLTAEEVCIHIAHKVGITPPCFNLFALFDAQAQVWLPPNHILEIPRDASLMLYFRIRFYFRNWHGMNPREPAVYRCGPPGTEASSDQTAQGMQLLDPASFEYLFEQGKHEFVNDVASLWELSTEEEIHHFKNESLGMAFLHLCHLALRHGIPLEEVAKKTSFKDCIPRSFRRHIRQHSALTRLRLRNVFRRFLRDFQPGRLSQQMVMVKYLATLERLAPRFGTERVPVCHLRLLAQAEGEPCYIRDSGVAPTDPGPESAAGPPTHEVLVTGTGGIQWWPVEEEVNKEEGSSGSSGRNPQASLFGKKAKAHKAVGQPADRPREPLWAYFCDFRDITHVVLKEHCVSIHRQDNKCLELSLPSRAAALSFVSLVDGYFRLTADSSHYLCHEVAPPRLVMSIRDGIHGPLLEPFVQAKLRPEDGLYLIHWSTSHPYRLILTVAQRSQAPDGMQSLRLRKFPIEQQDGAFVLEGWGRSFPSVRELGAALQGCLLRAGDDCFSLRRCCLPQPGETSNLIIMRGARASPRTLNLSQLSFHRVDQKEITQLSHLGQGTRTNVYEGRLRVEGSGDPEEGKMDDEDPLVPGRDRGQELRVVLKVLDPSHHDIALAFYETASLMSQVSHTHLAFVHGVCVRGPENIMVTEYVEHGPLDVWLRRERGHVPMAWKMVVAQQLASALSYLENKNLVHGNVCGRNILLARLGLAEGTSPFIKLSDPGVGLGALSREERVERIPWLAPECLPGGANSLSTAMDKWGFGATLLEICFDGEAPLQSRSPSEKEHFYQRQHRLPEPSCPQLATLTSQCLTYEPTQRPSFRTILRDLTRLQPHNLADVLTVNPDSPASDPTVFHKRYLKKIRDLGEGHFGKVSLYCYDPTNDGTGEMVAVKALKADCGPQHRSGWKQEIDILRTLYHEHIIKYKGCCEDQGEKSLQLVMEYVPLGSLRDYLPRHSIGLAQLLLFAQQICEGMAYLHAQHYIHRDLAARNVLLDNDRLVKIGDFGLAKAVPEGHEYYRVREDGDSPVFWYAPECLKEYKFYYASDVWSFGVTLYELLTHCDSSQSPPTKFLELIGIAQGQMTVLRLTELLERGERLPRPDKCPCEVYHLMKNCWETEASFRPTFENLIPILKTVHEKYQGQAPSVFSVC
T1 sequence (P23458 whole entry): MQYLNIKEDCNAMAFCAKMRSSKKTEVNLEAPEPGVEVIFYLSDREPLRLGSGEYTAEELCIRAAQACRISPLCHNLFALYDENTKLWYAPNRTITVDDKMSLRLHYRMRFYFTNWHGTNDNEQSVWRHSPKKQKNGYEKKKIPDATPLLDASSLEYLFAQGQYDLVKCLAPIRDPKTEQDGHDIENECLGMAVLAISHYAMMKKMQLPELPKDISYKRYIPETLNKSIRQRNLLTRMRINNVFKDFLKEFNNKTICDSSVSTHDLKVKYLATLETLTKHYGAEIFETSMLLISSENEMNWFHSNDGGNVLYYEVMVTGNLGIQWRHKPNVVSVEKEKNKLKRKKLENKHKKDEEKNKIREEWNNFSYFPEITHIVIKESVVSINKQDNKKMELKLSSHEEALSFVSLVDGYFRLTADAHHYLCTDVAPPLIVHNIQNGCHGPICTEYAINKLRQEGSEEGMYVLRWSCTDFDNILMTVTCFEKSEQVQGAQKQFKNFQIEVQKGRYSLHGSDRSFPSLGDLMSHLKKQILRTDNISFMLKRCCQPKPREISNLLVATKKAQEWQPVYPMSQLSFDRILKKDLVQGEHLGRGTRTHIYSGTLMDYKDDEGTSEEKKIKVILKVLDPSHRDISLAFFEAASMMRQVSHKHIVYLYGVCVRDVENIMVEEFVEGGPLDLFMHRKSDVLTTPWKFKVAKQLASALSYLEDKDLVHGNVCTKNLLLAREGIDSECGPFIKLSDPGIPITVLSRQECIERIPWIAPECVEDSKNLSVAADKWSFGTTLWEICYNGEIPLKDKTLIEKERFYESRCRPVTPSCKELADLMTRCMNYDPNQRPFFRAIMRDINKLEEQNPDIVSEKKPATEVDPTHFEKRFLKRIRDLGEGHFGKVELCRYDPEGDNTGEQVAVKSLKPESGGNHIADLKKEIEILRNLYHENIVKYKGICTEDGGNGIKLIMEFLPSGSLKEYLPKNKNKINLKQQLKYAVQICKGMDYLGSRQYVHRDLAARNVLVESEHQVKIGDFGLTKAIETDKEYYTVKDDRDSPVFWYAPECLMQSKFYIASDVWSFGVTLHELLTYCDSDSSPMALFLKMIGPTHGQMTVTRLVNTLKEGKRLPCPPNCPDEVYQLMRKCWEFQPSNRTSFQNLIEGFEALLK
T3 sequence (O60674 whole entry): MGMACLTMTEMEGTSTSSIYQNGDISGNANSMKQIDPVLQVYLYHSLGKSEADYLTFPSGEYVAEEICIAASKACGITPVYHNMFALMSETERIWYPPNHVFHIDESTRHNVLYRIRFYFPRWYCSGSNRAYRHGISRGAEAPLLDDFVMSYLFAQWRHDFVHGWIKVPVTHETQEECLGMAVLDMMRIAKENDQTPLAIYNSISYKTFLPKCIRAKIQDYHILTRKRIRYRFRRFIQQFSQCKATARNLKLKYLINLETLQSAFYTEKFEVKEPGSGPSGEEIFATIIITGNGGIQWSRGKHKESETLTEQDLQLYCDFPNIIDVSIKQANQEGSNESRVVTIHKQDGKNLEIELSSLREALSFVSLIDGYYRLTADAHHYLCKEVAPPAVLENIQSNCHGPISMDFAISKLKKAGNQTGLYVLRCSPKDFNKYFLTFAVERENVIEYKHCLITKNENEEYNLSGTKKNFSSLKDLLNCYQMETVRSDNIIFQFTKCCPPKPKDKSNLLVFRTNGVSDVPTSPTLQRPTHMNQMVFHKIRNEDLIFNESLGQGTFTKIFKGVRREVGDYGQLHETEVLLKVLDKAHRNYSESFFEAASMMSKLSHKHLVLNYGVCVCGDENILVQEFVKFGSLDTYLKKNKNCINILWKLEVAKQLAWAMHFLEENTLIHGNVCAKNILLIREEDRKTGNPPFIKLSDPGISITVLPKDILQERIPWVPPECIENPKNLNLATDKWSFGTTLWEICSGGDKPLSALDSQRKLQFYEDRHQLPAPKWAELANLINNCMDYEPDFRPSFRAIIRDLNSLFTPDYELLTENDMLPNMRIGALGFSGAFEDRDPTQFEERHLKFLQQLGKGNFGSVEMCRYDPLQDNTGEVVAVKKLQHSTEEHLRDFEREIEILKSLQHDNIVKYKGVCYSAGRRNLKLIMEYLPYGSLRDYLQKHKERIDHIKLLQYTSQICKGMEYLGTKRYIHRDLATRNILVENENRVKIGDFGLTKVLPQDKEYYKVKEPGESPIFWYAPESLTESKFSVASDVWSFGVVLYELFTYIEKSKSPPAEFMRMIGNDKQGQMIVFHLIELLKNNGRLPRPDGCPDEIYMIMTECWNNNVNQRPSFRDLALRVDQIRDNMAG
Sequence of CYP2C9 (P11712 whole entry): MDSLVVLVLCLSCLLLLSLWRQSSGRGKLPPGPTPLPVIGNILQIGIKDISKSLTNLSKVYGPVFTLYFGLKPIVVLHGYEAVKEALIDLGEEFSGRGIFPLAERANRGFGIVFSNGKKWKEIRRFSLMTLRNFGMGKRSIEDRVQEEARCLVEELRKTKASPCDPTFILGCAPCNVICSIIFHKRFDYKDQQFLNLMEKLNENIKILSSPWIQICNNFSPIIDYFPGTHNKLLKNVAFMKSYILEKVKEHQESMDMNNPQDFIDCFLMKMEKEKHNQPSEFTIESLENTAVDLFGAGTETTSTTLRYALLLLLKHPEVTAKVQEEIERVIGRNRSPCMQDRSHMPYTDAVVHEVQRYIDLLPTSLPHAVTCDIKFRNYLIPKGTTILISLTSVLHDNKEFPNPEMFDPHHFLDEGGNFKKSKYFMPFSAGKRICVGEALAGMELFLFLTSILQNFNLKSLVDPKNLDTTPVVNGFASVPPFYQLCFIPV
Sequence of CYP2D6 (P10635 whole entry): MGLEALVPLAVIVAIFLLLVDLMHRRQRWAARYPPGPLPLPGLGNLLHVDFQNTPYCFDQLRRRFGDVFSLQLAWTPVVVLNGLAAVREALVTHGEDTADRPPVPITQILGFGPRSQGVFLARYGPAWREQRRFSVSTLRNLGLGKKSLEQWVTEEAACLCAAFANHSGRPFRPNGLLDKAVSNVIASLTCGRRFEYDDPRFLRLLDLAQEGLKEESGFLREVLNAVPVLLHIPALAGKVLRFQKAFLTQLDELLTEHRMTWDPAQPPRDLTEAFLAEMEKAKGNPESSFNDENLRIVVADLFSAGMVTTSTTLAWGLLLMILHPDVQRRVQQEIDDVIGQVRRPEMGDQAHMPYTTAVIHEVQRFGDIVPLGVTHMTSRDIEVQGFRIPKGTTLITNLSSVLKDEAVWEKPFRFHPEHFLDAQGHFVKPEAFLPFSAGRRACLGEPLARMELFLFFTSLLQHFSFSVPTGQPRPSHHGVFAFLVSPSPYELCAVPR
Sequence of CYP2C19 (P33261 whole entry): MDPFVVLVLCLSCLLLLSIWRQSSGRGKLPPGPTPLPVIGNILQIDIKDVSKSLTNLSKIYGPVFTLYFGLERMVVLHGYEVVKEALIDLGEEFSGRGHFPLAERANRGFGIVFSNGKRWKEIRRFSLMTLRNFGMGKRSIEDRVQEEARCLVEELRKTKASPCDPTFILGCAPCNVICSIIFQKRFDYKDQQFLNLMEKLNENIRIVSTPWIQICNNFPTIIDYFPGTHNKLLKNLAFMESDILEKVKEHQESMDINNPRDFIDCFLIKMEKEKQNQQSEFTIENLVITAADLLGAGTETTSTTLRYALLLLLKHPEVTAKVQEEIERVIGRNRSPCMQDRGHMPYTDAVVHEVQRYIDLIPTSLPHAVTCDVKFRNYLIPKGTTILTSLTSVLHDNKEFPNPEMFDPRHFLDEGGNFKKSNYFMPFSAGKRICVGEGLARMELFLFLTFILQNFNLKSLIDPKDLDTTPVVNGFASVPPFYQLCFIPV

Compound	IC50 [1] [nM]	IC50 [2] [nM]	IC50 [3] [nM]	GI50 [4] [nM]	GI50 [5] [nM]	further results
C[C@@H]1C[C@H](Nc2c(C(N)=O)cnc3[nH]ccc23)CCN1Cc1cccc(Cl)c1 (relative stereo)	6.87	48.4	93.8	–	–	–
CNC(=O)c1cnc2[nH]ccc2c1NC1CCN(Cc2ccc(OC)c(OC)c2)CC1	8400	–	> 10000	–	–	–
CNC(=O)c1cnc2[nH]ccc2c1NC1CCCN(Cc2ccccc2)CC1 (centres undefined)	–	276	89.3	–	–	–
CNC(=O)c1cnc2[nH]ccc2c1NC1CCN(Cc2cccc(OC)c2)CC1	18	1210	469	–	–	–
CNC(=O)c1cnc2[nH]ccc2c1N[C@H]1CCN(Cc2ccc(Cl)cc2)[C@@H](C)C1	–	–	–	6.4	475	GI50 [6]: 1140 nM
CNC(=O)c1cnc2[nH]ccc2c1N[C@@H]1CCN(Cc2ccc(Cl)cc2)[C@H](C)C1 (relative stereo) [listing 1 of 2 here]	–	–	–	10.5	655	inhibition [7]: Active; inhibition [8]: Active; inhibition [9]: Active; inhibition [10]: Active; GI50 [6]: 1360 nM
CNC(=O)c1cnc2[nH]ccc2c1NC1CCN(Cc2cccc(C#N)c2)CC1	82	710	759	–	–	–
CNC(=O)c1cnc2[nH]ccc2c1NC1CCCN(Cc2cccc(Cl)c2)CC1 (centres undefined)	–	–	–	476	> 10000	GI50 [11]: 7690 nM; GI50 [6]: > 10000 nM
CNC(=O)c1cnc2[nH]ccc2c1N[C@@H]1CCN(Cc2cccc(OC)c2)C[C@@H]1F (relative stereo)	–	–	–	214	9650	–
COc1cccc(CN2CCC(Nc3c(C(=O)NC4CCCC4)cnc4[nH]ccc34)CC2)c1	3280	> 10000	> 10000	–	–	–
CNC(=O)c1cnc2[nH]ccc2c1NC1CCN(c2ccccc2)CC1	160	–	–	–	–	–
O=C(Nc1nc2cccc(-c3ccc(CN4CCS(=O)(=O)CC4)cc3)n2n1)C1CC1	–	–	–	798	7190	inhibition [7]: Active; GI50 [11]: > 10000 nM; GI50 [6]: > 10000 nM
CNC(=O)c1cnc2[nH]ccc2c1N[C@@H]1CCN(Cc2cccc(Cl)c2)[C@@H](C)C1 (relative stereo)	–	–	–	232	4750	GI50 [6]: > 10000 nM
COc1cccc(CN2CCC(Nc3c(C(=O)NC4CC4)cnc4[nH]ccc34)CC2)c1	2960	> 10000	> 10000	–	–	–
CNC(=O)c1cnc2[nH]ccc2c1NC1CCN(Cc2ccc(OC)cc2)CC1	202	–	3540	–	–	–
COc1cccc(CN2CCC(Nc3c(C(N)=O)cnc4[nH]ccc34)CC2)c1	195	–	–	–	–	–
CNC(=O)c1cnc2[nH]ccc2c1N[C@@H]1CCN(Cc2ccc(Cl)cc2)[C@H](C)C1	–	–	–	2950	> 10000	GI50 [6]: > 10000 nM
CNC(=O)c1cnc2[nH]ccc2c1NC1CC2CCC(C1)N2Cc1ccc(Cl)cc1 (centres undefined)	–	–	–	1800	1710	GI50 [11]: 3950 nM; GI50 [6]: 3900 nM
CC(=O)Nc1cc(Oc2ccc3c(c2)CCN3C(=O)Nc2ccc(CN3CCN(C)CC3)c(C(F)(F)F)c2)ncn1	–	–	–	129	150	GI50 [11]: 409 nM; GI50 [6]: 451 nM
CNC(=O)c1cnc2[nH]ccc2c1NC1CCN(Cc2ccccc2OC)CC1	406	4180	7060	–	–	–
CNC(=O)c1cnc2[nH]ccc2c1N[C@@H]1CCN(Cc2ccc(Cl)cc2)[C@H](C)C1 (relative stereo) [listing 2 of 2 here]	–	–	–	–	–	GI50 [12]: 5790 nM; remaining at 0.5 h, 10 µM [13]: 28.2%; Papp A→B at 10 µM [14]: 1.9 ×10⁻⁶ cm/s; inhibition at 10 µM [15]: 74.8%; IC50 [16]: 106 nM; remaining at 2 h, 2 µM [17]: 92.6%; GI50 at 48 h [18]: > 10000 nM; Papp B→A at 10 µM [19]: 3.7 ×10⁻⁶ cm/s; inhibition at 10 µM [20]: 77.1%; inhibition at 10 µM [21]: 92.9%; remaining at 2 h, 2 µM [22]: > 100%; inhibition at 10 µM [23]: 75.7%; inhibition at 10 µM [24]: 70%; remaining at 0.5 h, 10 µM [25]: 11.6%; remaining at 0.5 h, 10 µM [26]: 80.6%
CNC(=O)c1cnc2[nH]ccc2c1NC1CCN(Cc2ccccc2)CC1	65	586	–	–	–	–
COc1cccc(CN2CC[C@@H](Nc3c(C(N)=O)cnc4[nH]ccc34)C[C@H]2C)c1 (relative stereo)	17.2	157	57.6	–	–	–
O=C(NC1CC1)c1cnc2[nH]ccc2c1NC1CCN(Cc2ccccc2)CC1	114	1350	232	–	–	–
NC(=O)c1cnc2[nH]ccc2c1NC1CCN(Cc2ccccc2)CC1	–	110	–	–	–	–
CNC(=O)c1cnc2[nH]ccc2c1NC1CCCN(Cc2cccc(OC)c2)CC1 (centres undefined)	8.61	42.7	4.34	–	–	–
O=C(NC1CCCC1)c1cnc2[nH]ccc2c1NC1CCN(Cc2ccccc2)CC1	> 10000	–	–	–	–	–
